Values belong to the molecule of their own block, whether it stands above or below them. Active and inactive are the calls of the source.
Columns and labels:
[1] = molecular target: Polyadenylate-binding protein 1 (Homo sapiens, UniProt P11940); experiment: PABP poly(A) RNA binding inhibitors, primary screen, biochemical, fluorescence polarization, uHTS (AID 2014)
[2] = molecular target: T1, Intestinal-type alkaline phosphatase (Mus musculus, UniProt P24822); experiment: PubChem AID 488785; assay type: functional
[3] = molecular target: T2, Alkaline phosphatase, tissue-nonspecific isozyme (Homo sapiens, UniProt P05186); experiment: TNAP enzyme inhibition by screening hits, dose response, selectivity assay for mouse IAP inhibitor project, biochemical, human TNAP, uHTS hits (AID 488906); assay type: functional
T2 sequence (P05186 whole entry): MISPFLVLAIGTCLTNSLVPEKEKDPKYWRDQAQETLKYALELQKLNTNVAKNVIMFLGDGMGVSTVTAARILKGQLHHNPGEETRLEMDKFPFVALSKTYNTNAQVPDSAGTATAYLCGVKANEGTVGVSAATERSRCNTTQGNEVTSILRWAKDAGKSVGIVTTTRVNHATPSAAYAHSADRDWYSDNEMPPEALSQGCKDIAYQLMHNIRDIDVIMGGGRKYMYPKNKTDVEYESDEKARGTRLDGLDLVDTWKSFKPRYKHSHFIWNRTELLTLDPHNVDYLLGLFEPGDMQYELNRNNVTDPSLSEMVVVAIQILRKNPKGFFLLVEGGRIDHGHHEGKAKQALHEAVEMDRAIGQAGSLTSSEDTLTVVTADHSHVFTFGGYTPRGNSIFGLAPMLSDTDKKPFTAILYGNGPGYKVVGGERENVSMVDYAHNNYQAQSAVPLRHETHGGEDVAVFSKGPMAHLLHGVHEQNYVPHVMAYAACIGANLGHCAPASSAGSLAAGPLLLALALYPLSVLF

[4] = molecular target: Eukaryotic translation initiation factor 4H (Homo sapiens, UniProt Q15056); experiment: human eIF4H binding inhibitors, primary screen, translation initiation inhibitor project, biochemical, uHTS, fluorescence polarization (AID 2012)
[5] = molecular target: T3, Intestinal-type alkaline phosphatase (Homo sapiens, UniProt P09923); experiment: inhibition of human intestinal alkaline phosphatase – biochemical, dose response (AID 488876); assay type: functional
[6] = molecular target: Sphingosine 1-phosphate receptor 1 (Homo sapiens, UniProt P21453); experiment: Late stage counterscreen assay for S1P4 antagonists: Fluorescence dose response cell-based screening assay for antagonists of the Sphingosine 1-Phosphate Receptor 1 (S1P1). [Related pubchem assays (depositor defined):AID1510, AID1524, AID1692, AID1853, AID2332, AID489009, AID489017]; assay type: functional
[7] = molecular target: Sphingosine 1-phosphate receptor 5 (Homo sapiens, UniProt Q9H228); experiment: Late stage counterscreen assay for S1P4 antagonists: Fluorescence dose response cell-based screening assay for antagonists of the Sphingosine 1-Phosphate Receptor 5 (S1P5). [Related pubchem assays (depositor defined):AID1510, AID1524, AID1692, AID1853, AID2332, AID489009, AID489017]; assay type: functional
[8] = molecular target: Sphingosine 1-phosphate receptor 2 (Homo sapiens, UniProt O95136); experiment: Late stage counterscreen assay for S1P4 antagonists: Fluorescence dose response cell-based screening assay for antagonists of the Sphingosine 1-Phosphate Receptor 2 (S1P2). [Related pubchem assays (depositor defined):AID1510, AID1524, AID1692, AID1853, AID2332, AID489009, AID489017]; assay type: functional
[9] = molecular target: Sphingosine 1-phosphate receptor 3 (Homo sapiens, UniProt Q99500); experiment: Late stage counterscreen assay for S1P4 antagonists: Fluorescence dose response cell-based screening assay for antagonists of the Sphingosine 1-Phosphate Receptor 3 (S1P3). [Related pubchem assays (depositor defined):AID1510, AID1524, AID1692, AID1853, AID2332, AID489009, AID489017]; assay type: functional
[10] = molecular target: T3, Intestinal-type alkaline phosphatase; experiment: human IAP activators, dose response, biochemical, luminescent, uHTS hits, set 2 (AID 488817); assay type: functional;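 note: potency of activators that raise enzyme activity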
[11] = molecular target: T4, Short transient receptor potential channel 4 (Mus musculus, UniProt Q9QUQ5); experiment: mouse TRPC4 channel inhibitors, dose response, cell-based, HEK293 TRPC4/mu-opioid, Fluo-4 calcium (AID 434942); assay type: functional;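 note: potency of inhibitors blocking the TRPC4 calcium response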
T4 sequence (Q9QUQ5 whole entry): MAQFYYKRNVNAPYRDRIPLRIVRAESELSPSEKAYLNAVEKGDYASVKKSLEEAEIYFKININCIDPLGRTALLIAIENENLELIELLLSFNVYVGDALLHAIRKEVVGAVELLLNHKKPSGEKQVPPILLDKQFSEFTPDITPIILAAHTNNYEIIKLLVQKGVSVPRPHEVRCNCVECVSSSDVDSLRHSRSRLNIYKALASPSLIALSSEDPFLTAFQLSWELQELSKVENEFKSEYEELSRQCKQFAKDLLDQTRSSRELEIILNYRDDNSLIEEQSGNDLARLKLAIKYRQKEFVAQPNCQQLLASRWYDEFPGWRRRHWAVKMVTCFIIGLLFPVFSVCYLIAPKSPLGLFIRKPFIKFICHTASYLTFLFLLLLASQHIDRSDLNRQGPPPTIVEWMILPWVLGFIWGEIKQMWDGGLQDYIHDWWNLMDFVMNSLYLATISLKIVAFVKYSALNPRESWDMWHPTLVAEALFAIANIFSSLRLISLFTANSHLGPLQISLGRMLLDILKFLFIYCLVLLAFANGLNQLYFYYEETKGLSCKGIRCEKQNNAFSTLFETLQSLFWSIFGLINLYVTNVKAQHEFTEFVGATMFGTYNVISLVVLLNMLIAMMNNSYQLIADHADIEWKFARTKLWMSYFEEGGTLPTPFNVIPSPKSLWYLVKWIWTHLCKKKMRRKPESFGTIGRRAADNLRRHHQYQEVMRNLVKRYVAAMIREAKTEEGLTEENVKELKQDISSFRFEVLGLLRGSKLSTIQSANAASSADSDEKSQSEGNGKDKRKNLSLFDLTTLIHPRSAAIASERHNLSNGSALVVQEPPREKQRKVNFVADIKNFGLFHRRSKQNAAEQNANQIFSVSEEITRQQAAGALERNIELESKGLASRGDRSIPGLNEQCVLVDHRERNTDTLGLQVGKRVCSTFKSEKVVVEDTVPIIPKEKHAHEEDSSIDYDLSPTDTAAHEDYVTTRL

[12] = molecular target: T1, Intestinal-type alkaline phosphatase; experiment: PubChem AID 488875; assay type: functional
[13] = molecular target: T3, Intestinal-type alkaline phosphatase; experiment: human intestinal alkaline phosphatase activators, dose response, biochemical, luminescence, uHTS hits (AID 463120); assay type: functional
[14] = molecular target: T2, Alkaline phosphatase, tissue-nonspecific isozyme; experiment: TNAP enzyme activators, dose response, selectivity assay for human IAP activator project, biochemical, TNAP isozyme, human IAP uHTS hits (AID 488886); assay type: functional;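 note: potency of compounds raising TNAP activity as a selectivity check on IAP activators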

T3 sequence (P09923 whole entry): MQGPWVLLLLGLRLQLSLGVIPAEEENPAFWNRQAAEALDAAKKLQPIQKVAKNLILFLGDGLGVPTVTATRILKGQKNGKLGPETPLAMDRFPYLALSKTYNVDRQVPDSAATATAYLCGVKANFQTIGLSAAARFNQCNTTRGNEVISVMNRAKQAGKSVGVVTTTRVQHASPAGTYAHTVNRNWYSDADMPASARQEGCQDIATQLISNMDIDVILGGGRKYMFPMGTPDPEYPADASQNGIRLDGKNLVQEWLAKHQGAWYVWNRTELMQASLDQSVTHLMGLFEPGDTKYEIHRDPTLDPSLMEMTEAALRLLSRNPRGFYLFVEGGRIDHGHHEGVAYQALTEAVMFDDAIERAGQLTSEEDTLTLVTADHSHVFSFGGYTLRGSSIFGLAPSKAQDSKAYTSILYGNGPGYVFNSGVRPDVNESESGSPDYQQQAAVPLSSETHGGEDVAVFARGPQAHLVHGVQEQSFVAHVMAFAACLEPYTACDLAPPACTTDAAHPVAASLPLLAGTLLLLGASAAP
T1 sequence (P24822 whole entry): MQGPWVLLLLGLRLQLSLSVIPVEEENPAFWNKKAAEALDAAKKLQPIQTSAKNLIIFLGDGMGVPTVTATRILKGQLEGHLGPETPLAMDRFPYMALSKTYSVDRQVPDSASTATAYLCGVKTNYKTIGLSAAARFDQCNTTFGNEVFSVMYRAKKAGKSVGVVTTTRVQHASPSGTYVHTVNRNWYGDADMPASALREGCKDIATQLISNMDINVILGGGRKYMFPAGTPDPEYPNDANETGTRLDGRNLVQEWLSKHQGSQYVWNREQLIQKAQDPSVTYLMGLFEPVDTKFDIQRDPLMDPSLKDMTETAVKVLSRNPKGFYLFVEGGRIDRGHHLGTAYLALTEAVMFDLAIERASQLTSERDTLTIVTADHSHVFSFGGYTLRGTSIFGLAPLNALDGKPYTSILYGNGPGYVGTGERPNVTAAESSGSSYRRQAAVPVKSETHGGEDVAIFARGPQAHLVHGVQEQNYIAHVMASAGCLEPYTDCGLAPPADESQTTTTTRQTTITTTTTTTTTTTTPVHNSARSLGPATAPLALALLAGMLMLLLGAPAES
Chain of Sphingosine 1-phosphate receptor 3 (Q99500 whole entry): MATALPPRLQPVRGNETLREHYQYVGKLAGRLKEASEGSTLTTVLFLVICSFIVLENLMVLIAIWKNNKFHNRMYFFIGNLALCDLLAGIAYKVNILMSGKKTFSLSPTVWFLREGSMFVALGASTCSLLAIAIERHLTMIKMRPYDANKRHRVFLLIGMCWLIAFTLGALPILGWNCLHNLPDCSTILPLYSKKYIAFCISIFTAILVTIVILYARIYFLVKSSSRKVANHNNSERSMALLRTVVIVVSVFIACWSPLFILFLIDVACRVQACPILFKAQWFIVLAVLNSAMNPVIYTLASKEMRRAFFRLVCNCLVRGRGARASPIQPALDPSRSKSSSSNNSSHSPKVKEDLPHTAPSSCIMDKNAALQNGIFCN
Chain of Sphingosine 1-phosphate receptor 5 (Q9H228 whole entry): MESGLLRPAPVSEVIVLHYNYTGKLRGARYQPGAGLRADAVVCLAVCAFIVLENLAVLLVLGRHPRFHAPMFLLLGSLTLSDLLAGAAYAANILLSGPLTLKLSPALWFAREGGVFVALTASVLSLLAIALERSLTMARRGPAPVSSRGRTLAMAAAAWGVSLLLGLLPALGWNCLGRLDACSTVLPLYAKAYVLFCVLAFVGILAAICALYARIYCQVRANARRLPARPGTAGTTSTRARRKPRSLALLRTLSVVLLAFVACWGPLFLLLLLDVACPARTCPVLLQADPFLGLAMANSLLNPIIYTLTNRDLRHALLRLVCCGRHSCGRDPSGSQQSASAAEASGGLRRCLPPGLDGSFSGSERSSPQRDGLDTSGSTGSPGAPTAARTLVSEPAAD
Chain of Sphingosine 1-phosphate receptor 1 (P21453 whole entry): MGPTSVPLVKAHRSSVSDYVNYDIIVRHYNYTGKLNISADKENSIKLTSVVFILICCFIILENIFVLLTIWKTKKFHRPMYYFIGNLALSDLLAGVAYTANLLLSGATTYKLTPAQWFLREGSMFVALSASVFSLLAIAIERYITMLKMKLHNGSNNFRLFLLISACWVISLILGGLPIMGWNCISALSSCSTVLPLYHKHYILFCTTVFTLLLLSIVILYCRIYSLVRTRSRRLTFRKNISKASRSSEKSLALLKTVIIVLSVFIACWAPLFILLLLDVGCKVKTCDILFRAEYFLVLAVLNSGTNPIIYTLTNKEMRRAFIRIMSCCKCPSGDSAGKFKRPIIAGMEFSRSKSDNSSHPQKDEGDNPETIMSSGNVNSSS
Chain of Sphingosine 1-phosphate receptor 2 (O95136 whole entry): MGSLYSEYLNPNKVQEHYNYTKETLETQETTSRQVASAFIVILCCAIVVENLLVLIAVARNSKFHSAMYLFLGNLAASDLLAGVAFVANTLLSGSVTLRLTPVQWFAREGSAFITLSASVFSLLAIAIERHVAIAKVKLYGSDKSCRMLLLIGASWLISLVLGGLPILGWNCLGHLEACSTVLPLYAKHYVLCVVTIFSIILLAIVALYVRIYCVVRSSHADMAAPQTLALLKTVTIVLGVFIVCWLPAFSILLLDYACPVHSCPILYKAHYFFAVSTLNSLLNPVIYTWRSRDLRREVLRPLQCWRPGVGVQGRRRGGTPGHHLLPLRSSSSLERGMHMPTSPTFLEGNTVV
Chain of Polyadenylate-binding protein 1 (P11940 whole entry): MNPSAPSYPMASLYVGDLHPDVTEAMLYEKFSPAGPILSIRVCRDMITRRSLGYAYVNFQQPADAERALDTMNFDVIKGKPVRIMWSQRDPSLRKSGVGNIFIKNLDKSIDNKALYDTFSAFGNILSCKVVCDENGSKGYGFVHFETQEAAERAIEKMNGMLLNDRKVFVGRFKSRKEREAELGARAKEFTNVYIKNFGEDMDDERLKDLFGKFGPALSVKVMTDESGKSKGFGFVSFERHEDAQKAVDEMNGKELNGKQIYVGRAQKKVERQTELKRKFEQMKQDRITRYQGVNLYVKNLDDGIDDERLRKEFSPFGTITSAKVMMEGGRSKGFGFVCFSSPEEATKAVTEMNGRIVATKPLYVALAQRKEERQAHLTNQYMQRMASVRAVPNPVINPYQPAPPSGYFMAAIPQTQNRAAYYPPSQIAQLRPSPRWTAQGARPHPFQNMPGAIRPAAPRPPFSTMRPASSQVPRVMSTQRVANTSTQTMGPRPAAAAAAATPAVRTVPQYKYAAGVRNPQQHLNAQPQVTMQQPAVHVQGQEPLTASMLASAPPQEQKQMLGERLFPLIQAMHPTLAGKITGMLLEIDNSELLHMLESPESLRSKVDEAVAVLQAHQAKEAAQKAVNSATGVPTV

Structure (SMILES): COc1cc(OC)c2c(c1O)OC(c1ccccc1)CC2=O (centres undefined)
IC50 [1]: 91.1 µM (active)
IC50 [2]: 21.8 µM (active)
IC50 [3]: > 100 µM (inactive)
IC50 [4]: 48.6 µM (active)
IC50 [5]: > 100 µM (inactive)

IC50 [6]: > 25 µM (inactive)
IC50 [7]: > 25 µM (inactive)
IC50 [8]: > 25 µM (inactive)
IC50 [9]: > 25 µM (inactive)
Structure (SMILES): Cc1cccc(C)c1NC(=O)c1ccc(-c2cccc(Cl)c2)o1

EC50 [10]: 80.1 µM (active)
EC50 [11]: 473 nM (active)
EC50 [12]: 80.6 µM (active)
EC50 [13]: 59.9 µM (active)
EC50 [14]: 74.4 µM (active)
Structure (SMILES): CCOc1ccccc1CN1CCC(n2nccc2NC(=O)CCc2ccccc2)CC1
